For data set [1], the system named is BCG-LPS-induced fulminant hepatitis. Put plainly: Inhibitory effect on BCG-LPS-induced fulminant hepatitis in mice (antihepatitis effect). The format is in vivo, BALB/C mice. To be noted: for Number of deaths/number of animals/used: 50 mg/kg orally 1 hour before LPS i.v., deaths at 48 hours, control mortality 80-100%; for inhibition at 50 mg/kg: Mus musculus, po, 50 mg/kg orally, plasma transaminase at hour 4 after LPS. As to the method: The antihepatitis action of the compound of the invention could be confirmed by the following test in mice. This test is the commonest animal test for evaluating the antihepatitis effect of drugs. It is known that the antihepatitis effect evaluated by this test method is highly correlated with the clinical effect in man (Kondo, Y. et al. Chem. Pharm. Bull. 38, 2887-2889, 1990). Method: Six-week-old male BALB/C mice were intravenously dosed with 1 mg of BCG and after 2 weeks, 50 mg/kg of the test drug was administered orally. Then, after 1 hour, 2.5 µg of lipopolysaccharide (LPS) was injected intravenously to induce hepatitis. To find the LPS-associated mortality, the percentage of deaths at 48 hours was calculated. The mortality in the control group was 80-100%. […] However, for reference's sake, blood was drawn from the orbital vein at hour 4 and the plasma transaminase (GOT, GPT) concentrations were determined. As a reference compound, 2,4-diamino-6-(2,5-dichlorophenyl)-1,3,5-triazine was used.

Another data set in a line: Acute toxicity. It counts as in vivo, Rats (SD strain). To be noted: 1 g/kg orally by gastric gavage, fasted rats, groups of 5. Here is the method:
Rats of either sex (SD strain, […]) were used in groups of 5. The animals were deprived of food from the previous day (16-18 hours before) and 1 g/kg of the compound of Example 1 was administered orally by gastric gavage. Then, deaths during the subsequent one-week period were recorded.

The next data set has as its system GST-P-positive lesions. Briefly: Inhibitory effect on hepatic chemooncogenesis in rats (DEN/AAF/hepatectomy precancerous lesion model, GST-P immunostaining). The format is in vivo, F344 rats. To be noted: for GST-P^+ area (mm^2/cm^2) mean±S.E. / GST-P^+ foci (N/cm^2) mean±S.E.: 0.01% in chow from week 2 to final day (4-week experiment); for GST-P^+ area (mm^2/cm^2) inhibition (%) / GST-P^+ foci (N/cm^2) inhibition (%): 0.01% in chow, versus own control group. Here is the method: Method: Five-week-old male F344 rats (Slc), a precancerous lesion model was constructed using the following protocol in accordance with the method of Solt and Faber (Nature, 263, 702-703, 1976). [formula] • ↑ : DEN 200 mg/kg, i.p. • : 70% hepatectomy • : 0.02% AAF • : Diet or water • ←→ : Drug administration period
Thus, the duration of the experiment being set at 4 weeks, 200 mg/kg of diethylnitrosoamine (hereinafter referred to briefly as DEN) was first administered intraperitoneally. Beginning week 2, drinking water containing 0.02% of 2-acetylaminofluorene (hereinafter referred to briefly as AAF) was given ad libitum. At the beginning of week 3, 70% hepatectomy was performed. The test drug was mixed into the animal chow (F-2, Funabashi Farm) at the concentration of 0.01% and administered from week 2 through the final day of the experiment. The compound of Example 1 was used as the test drug and 2,4-diamino-6-(2,5-dichlorophenyl)-1,3,5-triazine as the reference compound.
On the final day of the experiment, all the animals were sacrificed by cervical dislocation under ether anaesthesia. Immediately a portion of the liver was excised, quick-frozen in dry ice-acetone, and stored until used. From the liver, 8 µm-thick frozen sections were prepared and using Vectastain ABC Kit (Funakoshi Yakuhin), immunostained by the ABC method (an enzyme-labeled antibody method) using anti-glutathione-S-transferase placental form (hereinafter referred to briefly as GST-P) antibody as the primary antibody. Thus, sections were returned to room temperature under anhydrous conditions and immersed in 10 mM phosphate-buffered saline (hereinafter referred to briefly as PBS) at pH 7.2 for 15 minutes. Then, goat normal serum and the primary antibody (a 500-fold dilution, 20 µl) were applied to the section and allowed to react overnight. After the reaction, the section was washed with PBS. Then, anti-rabbit secondary antibody was applied and the reaction was carried out for 30 minutes. After washing with PBS, avidin-biotin complex was applied and allowed to react for 30 minutes. The section was washed with PBS and treated with 0.1% diaminobenzidine (DAB) containing 0.02% of hydrogen peroxide for color development, dehydrated, and sealed.
The number of GST-P-positive lesions per cm^2 liver tissue section was counted under an optical microscope and the area was measured with an image analyzer (SPICCA-II, Japan Avionics). The significance testing of mean values was made by Student's t-test and the result was evaluated at the 5% leval of significance.

Data set [2] can be described thus: Effect on body weight gain. It counts as in vivo. To be noted: 1,000 mg/kg administered repeatedly (daily), rats. Here is the method:
The compound of Example 1 was administered to rats daily to investigate its effect on body weight gain.

Read-outs that look alike come from different tables or passages of the source. Marks after values point to notes of the source that are not given here.

In general, inhibition refers to the change of the read-out against control, counted positive when it falls. `Nc1nc(-c2cc(Cl)ccc2Cl)nc(N2CCCC(O)C2)n1` (stereo not shown) [Example 37, 2-Amino-4-(2,5-dichlorophenyl)-6-(3-hydroxy-1-piperidinyl)-1,3,5-triazine]: in data set [1], the “Number of deaths/number of animals/used” value is on record as 0/18**. The inhibition at 50 mg/kg in data set [1] (read-out: % Inhibition GOT) was determined as 43%; in data set [1] (read-out: % Inhibition GPT), 38%.

As for `Nc1nc(-c2cc(Cl)ccc2Cl)nc(N(CCO)CCO)n1` [Example 1, 2-amino-4-[N,N-bis(2-hydroxyethyl)amino]-6-(2,5-dichlorophenyl)-1,3,5-triazine], the “deaths during the subsequent one-week period” value in “Acute toxicity” is “no death was found at all”. Besides, the “Number of deaths/number of animals/used” value in data set [1] is on record as 2/10**. In data set [1] (read-out: % Inhibition GOT), the inhibition at 50 mg/kg worked out at 37%. Further, the inhibition at 50 mg/kg in data set [1] (read-out: % Inhibition GPT) turned out to be 17%. Further, in the data set with GST-P-positive lesions, the “GST-P^+ area (mm^2/cm^2) mean±S.E.” value was 0.8± 0.2 mm^2/cm^2, the “GST-P^+ foci (N/cm^2) mean±S.E.” value was found to be 41.5± 5.2 N/cm^2, the “GST-P^+ area (mm^2/cm^2) inhibition (%)” value was determined as 48.6% and the “GST-P^+ foci (N/cm^2) inhibition (%)” value was determined as 28.9%. The “effect on body weight gain” value in data set [2] was “did not affect body weight gain”.

Turning to `Cc1ccc(OCCN2CCN(c3nc(N)nc(-c4cc(Cl)ccc4Cl)n3)CC2)cc1` [Example 21, 2-Amino-4-(2,5-dichlorophenyl)-6-[4-[2-(4-methylphenoxy)ethyl]piperazin-1-yl]-1,3,5-triazine], the “Number of deaths/number of animals/used” value in data set [1] is 0/10**. Besides, the inhibition at 50 mg/kg in data set [1] (read-out: % Inhibition GOT) was 29%; in data set [1] (read-out: % Inhibition GPT), 10%.

As for `Nc1nc(-c2cc(Cl)ccc2Cl)nc(N2CCCC2)n1` [Example 30, 2-Amino-4-(2,5-dichlorophenyl)-6-pyrrolidino-1,3,5-triazine], in data set [1], the “Number of deaths/number of animals/used” value is recorded as 0/18**. The results for the inhibition at 50 mg/kg in data set [1] (read-out: % Inhibition GOT) and in data set [1] (read-out: % Inhibition GPT) were 45% and 31%, respectively.

With `Nc1nc(-c2cc(Cl)ccc2Cl)nc(N2CCC(O)C2)n1.O=C(O)/C=C\C(=O)O` (stereo not shown) [Example 31, 2-Amino-4-(2,5-dichlorophenyl)-6-(3-hydroxy-1-pyrrolidinyl)-1,3,5-triazine maleate], the “Number of deaths/number of animals/used” value in data set [1] was 1/18**. In addition, the inhibition at 50 mg/kg stood at 47% in data set [1] (read-out: % Inhibition GOT) and 34% in data set [1] (read-out: % Inhibition GPT).

As to `COCCNc1nc(N)nc(-c2cc(Cl)ccc2Cl)n1` [Example 6, 2-Amino-4-(2,5-dichlorophenyl)-6-(2-methoxyethylamino)-1,3,5-triazine], the “Number of deaths/number of animals/used” value in data set [1] is reported as 2/10**. The inhibition at 50 mg/kg in data set [1] (read-out: % Inhibition GOT) is 34%; in data set [1] (read-out: % Inhibition GPT) it was 29%.

For the compound `Nc1nc(-c2cc(Cl)ccc2Cl)nc(N2CCOCC2)n1` [Reference Example 5, 2-Amino-4-(2,5-dichlorophenyl)-6-morpholino-1,3,5-triazine], in data set [1], the “Number of deaths/number of animals/used” value is 0/18**. Moreover, the results for the inhibition at 50 mg/kg in data set [1] (read-out: % Inhibition GOT) and in data set [1] (read-out: % Inhibition GPT) were 58% and 45%, respectively.

With `CNc1nc(N)nc(-c2cc(Cl)ccc2Cl)n1` [Example 2, 2-Amino-4-(2,5-dichlorophenyl)-6-methylamino-1,3,5-triazine], the “Number of deaths/number of animals/used” value in data set [1] is listed as 0/10**. Also, the inhibition at 50 mg/kg in data set [1] (read-out: % Inhibition GOT) is 46%; in data set [1] (read-out: % Inhibition GPT), 33%.

On to `Cl.Nc1nc(-c2cc(Cl)ccc2Cl)nc(N2CCC[C@H]2CO)n1` [Example 32, (S)-2-amino-4-(2,5-dichlorophenyl)-6-(2-hydroxymethyl-1-pyrrolidinyl)-1,3,5-triazine hydrochloride], for which the “Number of deaths/number of animals/used” value in data set [1] is on record as 0/18**. Further, the values for the inhibition at 50 mg/kg in data set [1] (read-out: % Inhibition GOT) and in data set [1] (read-out: % Inhibition GPT) were 62% and 60%, respectively.

Take `CN(CCO)c1nc(N)nc(-c2cc(Cl)ccc2Cl)n1` [Example 5, 2-Amino-4-(2,5-dichlorophenyl)-6-[N-methyl-N-(2-hydroxyethyl)amino]-1,3,5-triazine]: the “Number of deaths/number of animals/used” value in data set [1] was 0/10**. Moreover, the inhibition at 50 mg/kg in data set [1] (read-out: % Inhibition GOT) was determined as 43%; in data set [1] (read-out: % Inhibition GPT) it was 18%.

Consider `Nc1nc(-c2cc(Cl)ccc2Cl)nc(N2CCC(=O)CC2)n1` [Example 56, 2-Amino-4-(2,5-dichlorophenyl)-6-(4-oxo-1-piperidinyl)-1,3,5-triazine], for which the “Number of deaths/number of animals/used” value in data set [1] was 0/15**. Besides, the inhibition at 50 mg/kg was 38% in data set [1] (read-out: % Inhibition GOT) and 37% in data set [1] (read-out: % Inhibition GPT).

Turning to `CN(C)c1nc(N)nc(-c2cc(Cl)ccc2Cl)n1` [Example 3, 2-Amino-4-(2,5-dichlorophenyl)-6-dimethylamino-1,3,5-triazine], the “Number of deaths/number of animals/used” value in data set [1] was 0/10**. For the same compound, the inhibition at 50 mg/kg in data set [1] (read-out: % Inhibition GOT) amounted to 37%; in data set [1] (read-out: % Inhibition GPT), 38%.

Take `Cl.Cl.NCC1CCN(c2nc(N)nc(-c3cc(Cl)ccc3Cl)n2)C1` (stereo not shown) [Example 62, 2-Amino-4-(2,5-dichlorophenyl)-6-(3-aminomethyl-1-pyrrolidinyl)-1,3,5-triazine dihydrochloride]: the “Number of deaths/number of animals/used” value in data set [1] was 0/15**. Further, the inhibition at 50 mg/kg in data set [1] (read-out: % Inhibition GOT) came out at 29%; in data set [1] (read-out: % Inhibition GPT) it was 38%.

For the compound `Nc1nc(N)nc(-c2cc(Cl)ccc2Cl)n1` [Reference Compound, 2,4-diamino-6-(2,5-dichlorophenyl)-1,3,5-triazine, reference compound], the “Number of deaths/number of animals/used” value in data set [1] was 0/10*. In addition, the inhibition at 50 mg/kg in data set [1] (read-out: % Inhibition GOT) amounted to 21%. The inhibition at 50 mg/kg in data set [1] (read-out: % Inhibition GPT) is -6%. In addition, in the data set on GST-P-positive lesions, the “GST-P^+ area (mm^2/cm^2) mean±S.E.” value was 3.6±0.7 mm^2/cm^2, the “GST-P^+ foci (N/cm^2) mean±S.E.” value came out at 67.9± 8.7 N/cm^2, the “GST-P^+ area (mm^2/cm^2) inhibition (%)” value is on record as 7.7% and the “GST-P^+ foci (N/cm^2) inhibition (%)” value was 9.7%.

Consider `Cl.Nc1nc(-c2cc(Cl)ccc2Cl)nc(N2CCC[C@@H]2CO)n1` [Example 33, (R)-2-amino-4-(2,5-dichlorophenyl)-6-(2-hydroxymethyl-1-pyrrolidinyl)-1,3,5-triazine hydrochloride], for which the “Number of deaths/number of animals/used” value in data set [1] is reported as 0/18**. The inhibition at 50 mg/kg in data set [1] (read-out: % Inhibition GOT) is 39%; in data set [1] (read-out: % Inhibition GPT), 41%.

Source of the values: patent publication EP0775487A1, “TRIAZINE DERIVATIVE AND MEDICINE” (NIPPON SHINYAKU COMPANY, LIMITED, priority 1994, dated 1996).
